Measured values reported in patent publication US9822099B2, “Triazole derivatives” (priority 2013, dated 2017).
Marks after values point to notes of the source that are not given here.

details: method [a]: LC-MS at pH 2.7, 0.1% formic acid in water / acetonitrile gradient

Structure (SMILES) | LogP
ClC1(C2(Cc3ccncn3)CO2)CC1 (centres unmarked) [XII-25] | 1.44^[a]
Fc1cnccc1CC1(C2(Cl)CC2)CO1 (centres unmarked) [XII-6] | 2.13^[a]
FC1(C2(Cc3c(Cl)cncc3Cl)CO2)CC1 (centres unmarked) [XII-34] | 2.93^[a]
O=C(Cc1cc(Cl)cnc1Cl)C1(Cl)CC1 [Example V-21] | 3.12^[a]
Fc1cnc(Cl)cc1CC1(C2(F)CC2)CO1 (centres unmarked) [XII-13] | 2.57^[a]
Clc1cnccc1CC1(C2(Cl)CCCC2)CO1 (centres unmarked) [XII-16] | 3.42^[a]
CC(C)(Cl)C1(Cc2ccncc2Cl)CO1 (centres unmarked) [XII-15] | 2.57^[a]
ClC1(C2(Cc3ccc4ccccc4n3)CO2)CC1 (centres unmarked) [XII-1] | 1.74^[a]
Clc1ccc(CC2(C3(Cl)CC3)CO2)cn1 (centres unmarked) [XII-2] | 2.84
Fc1c(CC2(C3(Cl)CC3)CO2)ccnc1Cl (centres unmarked) [XII-26] | 3.11^[a]
CC(CF)(CF)C1(Cc2ccncc2F)CO1 (centres unmarked) [XII-8] | 1.79^[a]
Fc1cc(CC2(C3(F)CC3)CO2)c(Cl)cn1 (centres unmarked) [XII-21] | 2.80^[a]
FC1(C2(Cc3cccnc3Cl)CO2)CC1 (centres unmarked) [XII-23] | 2.18^[a]
Cc1cccc2cc(CC(=O)C3(Cl)CC3)c(Cl)nc12 [Example V-18] | 4.14^[a]
CC(CF)(CF)C1(Cc2ccncc2Cl)CO1 (centres unmarked) [XII-18] | 2.16^[a]
Clc1ccc(CC2(C3(Cl)CC3)CO2)c(Cl)n1 (centres unmarked) [XII-30] | 3.71^[a]
Fc1cc(CC2(C3(Cl)CC3)CO2)c(Cl)cn1 (centres unmarked) [XII-20] | 3.41^[a]
CC(CF)(CF)C1(Cc2c(Cl)cncc2Cl)CO1 (centres unmarked) [XII-33] | 2.89^[a]

Structure (SMILES) | LogP
Clc1ncccc1CC1(C2(Cl)CC2)CO1 (centres unmarked) [XII-5] | 2.69^[a]
FC1(C2(Cc3ccnc(Cl)c3)CO2)CC1 (centres unmarked) [XII-9] | 2.27^[a]
O=C(Cc1cccnc1)C1(Cl)CC1 [Example V-19] | 0.23^[a]
Clc1cc(CC2(C3(Cl)CC3)CO2)cc(Cl)n1 (centres unmarked) [XII-24] | 3.80^[a]
Fc1c(CC2(C3(F)CC3)CO2)ccnc1Cl (centres unmarked) [XII-28] | 2.53^[a]
Fc1cnc(Cl)cc1CC1(C2(Cl)CC2)CO1 (centres unmarked) [XII-14] | 3.15^[a]
Clc1cccnc1CC1(C2(Cl)CC2)CO1 (centres unmarked) [XII-4] | 2.69^[a]
O=C(Cc1cc(Cl)nc(Cl)c1)C1(Cl)CC1 [Example V-5] | 3.25^[a]
CC(CF)(CF)C1(Cc2cc(F)ncc2Cl)CO1 (centres unmarked) [XII-22] | 2.84^[a]
FC(F)(F)c1cnccc1CC1(C2(Cl)CC2)CO1 (centres unmarked) [XII-38] | 3.04^[a]
O=C(Cc1c(Cl)ccnc1Cl)C1(Cl)CC1 [Example V-20] | 2.96^[a]
CC(CF)(CF)C1(Cc2ccnc(Cl)c2F)CO1 (centres unmarked) [XII-27] | 2.65^[a]
Cc1cccc2cc(CC3(C4(Cl)CC4)CO3)c(Cl)nc12 (centres unmarked) [XII-39] | 4.90^[a]
CC(CF)(CF)C1(Cc2cc(Cl)ncc2F)CO1 (centres unmarked) [XII-12] | 2.69^[a]
O=C(Cc1cccnc1Cl)C1(c2ccccc2)CC1 [Example V-10] | 3.00^[a]
O=C(Cc1ccncc1Cl)C1(F)CC1 [Example V-7] | 1.76^[a]
CC(CF)(CF)C1(Cc2ccnc(Cl)c2)CO1 (centres unmarked) [XII-10] | 2.38^[a]

same assay, conditions: method [b]: LC-MS at pH 7.8, 0.001 molar ammonium hydrogen carbonate in water / acetonitrile gradient

Structure (SMILES) | LogP
Clc1ccc(CC2(C3(Cl)CC3)CO2)cn1 (centres unmarked) [XII-2] | 2.83

same assay, conditions: pH 2.7

LogP | Structure (SMILES)
1.63^[a] | OC(Cc1ccccc1F)(Cc1ccncc1F)Cn1cncn1 (centres unmarked) [Example I-20]
0.52^[a] | Cc1ccnc(CC(O)(Cn2cncn2)C2(Cl)CC2)c1 (centres unmarked) [Example I-52]
2.73^[a] | OC(Cc1nc(Cl)ccc1Cl)(Cn1cncn1)C1(Cl)CC1 (centres unmarked) [Example I-96]
2.69^[a] | OC(Cc1cc(Cl)nc2ccccc12)(Cn1cncn1)C1(Cl)CC1 (centres unmarked) [Example I-92]
2.75^[a] | C[Si](C)(C)OC(Cc1cnccn1)(Cn1cncn1)C1(Cl)CC1 (centres unmarked) [Example I-28]
1.89^[a] | OC(Cc1c(Cl)cncc1Cl)(Cn1cncn1)c1ccc(Cl)nc1 (racemic) [Example I-63]
1.28^[a] | CC1(C(O)(Cc2ccnnc2Cl)Cn2cncn2)CC1 (centres unmarked) [Example I-93]
2.23^[a] | OC(Cc1ccncc1Cl)(Cn1cncn1)C1(c2ccccc2)CC1 (racemic) [Example I-78]
